The numbers were not newly measured in patent publication US20130323309A1, “Sustained Release Composition of Memantine” (LUPIN LIMITED, priority 2011, published 2013), which cites them from elsewhere.

Molecules are shown by their SMILES.

For this series the following is noted: aqueous media and polar solvents; memantine or a pharmaceutically acceptable salt.

For `CC12CC3CC(C)(C1)CC(N)(C3)C2` [Memantine, 1-amino-3,5-dimethyladamantane], the Solubility result was “highly soluble”.
